The record followed here is patent publication US5073551A, “Cephalosporin compounds” (Sagami Chemical Research Center, priority 1988, dated 1991).

One data set has as its system S. aureus 209 P-JC. As to the kind of experiment: In-vitro antibacterial activity test, minimum growth inhibitory concentration (MIC), S. aureus. The data set is classed as cell-based. As to conditions: Staphylococcus aureus, 209PJC, read-out: Minimum growth inhibitory concentration.
The next data set has as its system P. mirabilis IFO 3849. As to the kind of experiment: In-vitro antibacterial activity test, minimum growth inhibitory concentration (MIC), P. mirabilis. The data set is classed as cell-based. To be noted: Proteus mirabilis.
Data set [1] in a line: In-vivo absorption test, serum concentration after oral administration (bioassay). Further details: species or system Wistar type rat (male). As to conditions: 50 mg/kg, fasted male Wistar rat, bioassay with Bacirus cereus S1101, read-out: Blood concentration / Serum concentration; for concentration at 1 h: 1 hr after oral administration; for concentration at 2 h: 2 hr after oral administration; for concentration at 4 h: 4 hr after oral administration.

Setting [2] is: IFO3849, P. mirabilis IFO 3849, read-out: Minimum growth inhibitory concentration.

SMILES strings stand for the structures. Values after ≈ are worked out from the molar mass of the structure shown. Read-outs that look alike come from different tables or passages of the source. Bounds are passed on as bounds.

As to `C=CC1=C(C(=O)O)N2C(=O)C(NC(=O)/C(=N\OCC(=O)O)c3csc(N)n3)C2SC1` (stereo not shown) [A, reference compound], the figures for the MIC with S. aureus 209 P-JC (S. aureus 209 P-JC) and in the data set on P. mirabilis IFO 3849 (setting [2]) were 12.5 µg/mL (≈ 27.6 µM) and not above 0.025 µg/mL, respectively.

As to `Nc1nc(/C(=N/O)C(=O)NC2C(=O)N3C(C(=O)[O-])=C(/C=C\c4csnn4)CS[C@H]23)cs1.[Na+]` (stereo partly shown), in data set [1], the concentration at 1 h came out at 4800 ng/mL, the concentration at 2 h came out at 6000 ng/mL and the concentration at 4 h is 6000 ng/mL. Further, the MIC in the data set on S. aureus 209 P-JC was not above 0.025 µg/mL. The MIC in the data set with P. mirabilis IFO 3849 (IFO3849, read-out: Minimum growth inhibitory concentration) was 0.1 µg/mL.

Take `CCOC(=O)OC(C)OC(=O)C1=C(/C=C\c2csnn2)CSC2C(NC(=O)/C(=N\O)c3csc(N)n3)C(=O)N12` (racemic) [Example 22, DL-1-ethoxycarbonyloxyethyl 7-[(Z)-(2-aminothiazol-4-yl)-2-hydroxyiminoacetamido]-3-[(Z)-2-(1,2,3-thiadiazol-4-yl)vinyl]-3-cephem-4-carboxylate]: in data set [1], the concentration at 1 h was 26600 ng/mL, the concentration at 2 h worked out at 37800 ng/mL and the concentration at 4 h came to 26700 ng/mL.

For the compound `Cc1nnsc1/C=C\C1=C(C(=O)[O-])N2C(=O)C(NC(=O)/C(=N\O)c3csc(N)n3)[C@H]2SC1.[Na+]` (stereo partly shown) [Example 14, sodium 7-[(Z)-2-(2-aminothiazol-4-yl)-2-hydroxyiminoacetamido]-3-[(Z)-2-(4-methyl-1,2,3-thiadiazol-5-yl)vinyl]-3-cephem-4-carboxylate], the MIC was 0.1 µg/mL in the data set on S. aureus 209 P-JC (S. aureus 209 P-JC) and 0.39 µg/mL with P. mirabilis IFO 3849 (setting [2]).

Consider `Nc1nc(/C(=N/O)C(=O)NC2C(=O)N3C(C(=O)O)=C(/C=C\c4cnns4)CSC23)cs1` (stereo not shown) [Example 21], for which the MIC in the data set on S. aureus 209 P-JC (S. aureus 209 P-JC) came out at 0.2 µg/mL (≈ 0.417 µM); in the data set with P. mirabilis IFO 3849 (setting [2]) it was 0.39 µg/mL (≈ 0.813 µM).

For the compound `CC(C)(C)C(=O)OCOC(=O)C1=C(/C=C\c2csnn2)CS[C@@H]2C(NC(=O)/C(=N\O)c3csc(N)n3)C(=O)N12` (stereo partly shown) [Example 19, pivalyloxymethyl 7-[(Z)-(2-aminothiazol-4-yl)-2-hydroxyiminoacetamido]-3-[(Z)-2-(1,2,3-thiadiazol-4-yl)vinyl]-3-cephem-4-carboxylate], in data set [1], the concentration at 1 h was determined as 11300 ng/mL, the concentration at 2 h was found to be 9800 ng/mL and the concentration at 4 h is 5800 ng/mL.

`CC(=O)OC(C)OC(=O)C1=C(/C=C\c2csnn2)CSC2C(NC(=O)/C(=N\O)c3csc(N)n3)C(=O)N12` (racemic) [Example 23, DL-1-acetyloxyethyl 7-[(Z)-2-(2-aminothiazol-4-yl)-2-hydroxyiminoacetamido]-3-[(Z)-2-(1,2,3-thiadiazol-4-yl)vinyl]-3-cephem-4-carboxylate]: in data set [1], the concentration at 1 h turned out to be 72100 ng/mL, the concentration at 2 h is 56600 ng/mL and the concentration at 4 h was 33400 ng/mL.

Turning to `Cc1snnc1/C=C\C1=C(C(=O)[O-])N2C(=O)C(NC(=O)/C(=N\O)c3csc(N)n3)[C@H]2SC1.[Na+]` (stereo partly shown) [Example 18, sodium 7-[(Z)-2-(2-aminothiazol-4-yl)-2-hydroxyiminoacetamido]-3-[(Z)-2-(5-methyl-1,2,3-thiadiazol-4-yl)vinyl]-3-cephem-4-carboxylate], the MIC stood at 0.2 µg/mL in the data set on S. aureus 209 P-JC (S. aureus 209 P-JC) and 0.39 µg/mL in the data set on P. mirabilis IFO 3849 (setting [2]).
